According to patent US20190008147A1, “COMPOSITION CONTAINING 1,2-DIBROMO-2,4-DICYANOBUTANE (DBDCB) AND AT LEAST ONE ORGANIC ACID AND/OR THE DERIVATIVES THEREOF” (priority 2015, published 2019):

How the values were obtained:
Format in all cases: cell-based
Alternaria alternata = test: Minimum inhibitory concentration and synergistic index (Kull); details: for QA: amount of DBDCB used on its own that suppresses growth
Source text: (§1) [formula] • where: • Qa=the amount of component A in the active substance mixture which achieves the desired effect, i.e. no microbial growth, • QA=the amount of component A which, when used on its own, suppresses the growth of the microorganisms, • Qb=the amount of component B in the active substance mixture which achieves the desired effect, i.e. no microbial growth, • and • QB=the amount of component B which, when used on its own, suppresses the growth of the microorganisms.
(§2) A synergistic index obtained according to the above formula of SI<1 indicates a synergistic effect for the active substance mixture.
(§3) Using various test pathogens, the minimum inhibitory concentration was determined and, on the basis thereof with the aid of the formula by F. C. Kull et al., the synergistic effects of the listed compositions according to the invention were calculated.

Aspergillus brasiliensis = test: as above; details: Table 9
Source text: as §1, §2, §3

Bacillus subtilis = test: as above; details: Table 8
Source text: as §1, §2, §3

Geotrichum candidum = test: as above; details: Table 3
Source text: as §1, §2, §3

Pseudomonas aeruginosa = test: as above; details: for QA: amount of DBDCB used on its own that suppresses growth
Source text: as §1, §2, §3

Staphylococcus aureus = test: as above; details: Table 1
Source text: as §1, §2, §3

[1] = tested on: Bacteria: Escherichia coil, Pseudomonas aeruginosa, Staphylococcus aureus, Pseudomonas putida, Enterobacter gergoviae; test: Microbiological load test, preservation of a dishwashing liquid: bacteria; details: B = bacteria, 1 week after pathogen addition, biocide added [wt %]: A DBDCB 0.05, B salicylic acid 0.02, C DBDCB 0.02 and salicylic acid 0.016
Source text: (§4) The preserving effect of an inventive composition comprising DBDCB and Salix alba extract in a dishwashing liquid was investigated using a microbiological load test. The microbiological load test examines the susceptibility of water-based products to microbial attack and the effect of preservatives. To this end, the preservatives are incorporated in defined concentrations into the water-based systems. […] With knowledge of the microorganism populations prevalent in detergents of the type described here, the experiment employed a mixture of the following microorganism species for testing: Bacteria: Escherichia coil, Pseudomonas aeruginosa, Staphylococcus aureus, Pseudomonas putida, Enterobacter gergoviae […] The activity is deemed poor when, compared to the unpreserved sample, no reduction or only a minor reduction of the microbe level is observed (residual level of at least 10^5 bacteria/10^4 mold cells/yeast cells per g) (score of 0=poor). The following compositions were used in the experiments depicted in table 10: • A: DBDCB • B: […]

[2] = tested on: Molds: Acremonium strictum, Aspergillus niger and Geotrichum candidum; test: Microbiological load test, preservation of a dishwashing liquid: molds; details: M = molds, 1 week after pathogen addition, biocide added [wt %]: A DBDCB 0.05, B salicylic acid 0.02, C DBDCB 0.02 and salicylic acid 0.016
Source text: as §4, with “Molds: Acremonium strictum, Aspergillus niger and Geotrichum candidum.” for “Bacteria: Escherichia coil, Pseudomonas aeruginosa, Staphylococcus aureus, Pseudomonas putida, Enterobacter gergoviae”

[3] = tested on: Yeasts: Candida albicans and Rhodotorula rubra; test: Microbiological load test, preservation of a dishwashing liquid: yeasts; details: Y = yeasts, 1 week after pathogen addition, biocide added [wt %]: A DBDCB 0.05, B salicylic acid 0.02, C DBDCB 0.02 and salicylic acid 0.016
Source text: as §4, with “Yeasts: Candida albicans and Rhodotorula rubra.” for “Bacteria: Escherichia coil, Pseudomonas aeruginosa, Staphylococcus aureus, Pseudomonas putida, Enterobacter gergoviae”

[4] = amount of DBDCB used on its own that suppresses growth
[5] = amount of benzoic acid used on its own that suppresses growth
[6] = amount of citric acid used on its own that suppresses growth

N#CCCC(Br)(C#N)CBr (stereo not drawn) [DBDCB, 1,2-dibromo-2,4-dicyanobutane]
QA (Alternaria alternata; Table 2): 25 ppm
QA (Alternaria alternata; Table 5): 25 ppm
QA (Alternaria alternata; Table 7): 25 ppm
QA (Aspergillus brasiliensis; [4]): 250 ppm
QA (Bacillus subtilis; [4]): 25 ppm
QA (Geotrichum candidum; [4]): 100 ppm
QA (Pseudomonas aeruginosa; Table 4): 500 ppm
QA (Pseudomonas aeruginosa; Table 6): 250 ppm
QA (Staphylococcus aureus; [4]): 50 ppm
Activity of the biocides in a dishwashing liquid, bacteria, Week 1 ([1]; week 1): 1 (1 = fair activity)
Activity of the biocides in a dishwashing liquid, bacteria, Week 2 ([1]; week 2): 0 (0 = poor activity)
Activity of the biocides in a dishwashing liquid, bacteria, Week 3 ([1]; week 3): 0 (0 = poor activity)
Activity of the biocides in a dishwashing liquid, bacteria, Week 4 ([1]; week 4): 0 (0 = poor activity)
Activity of the biocides in a dishwashing liquid, bacteria, Week 5 ([1]; week 5): 0 (0 = poor activity)
Activity of the biocides in a dishwashing liquid, bacteria, Week 6 ([1]; week 6): 0 (0 = poor activity)
Activity of the biocides in a dishwashing liquid, molds, Week 1 ([2]; week 1): 3 (3 = very good activity)
Activity of the biocides in a dishwashing liquid, molds, Week 2 ([2]; week 2): 3 (3 = very good activity)
Activity of the biocides in a dishwashing liquid, molds, Week 3 ([2]; week 3): 0 (0 = poor activity)
Activity of the biocides in a dishwashing liquid, molds, Week 4 ([2]; week 4): 0 (0 = poor activity)
Activity of the biocides in a dishwashing liquid, molds, Week 5 ([2]; week 5): 0 (0 = poor activity)
Activity of the biocides in a dishwashing liquid, molds, Week 6 ([2]; week 6): 0 (0 = poor activity)
Activity of the biocides in a dishwashing liquid, yeasts, Week 1 ([3]; week 1): 3 (3 = very good activity)
Activity of the biocides in a dishwashing liquid, yeasts, Week 2 ([3]; week 2): 3 (3 = very good activity)
Activity of the biocides in a dishwashing liquid, yeasts, Week 3 ([3]; week 3): 0 (0 = poor activity)
Activity of the biocides in a dishwashing liquid, yeasts, Week 4 ([3]; week 4): 0 (0 = poor activity)
Activity of the biocides in a dishwashing liquid, yeasts, Week 5 ([3]; week 5): 0 (0 = poor activity)
Activity of the biocides in a dishwashing liquid, yeasts, Week 6 ([3]; week 6): 0 (0 = poor activity)

O=C(O)c1ccccc1 [benzoic acid]
QB (Aspergillus brasiliensis; [5]): 1000 ppm
QB (Bacillus subtilis; [5]): 3000 ppm

O=C(O)CC(O)(CC(=O)O)C(=O)O [citric acid]
QB (Alternaria alternata; amount of citric acid used on its own that suppresses growth, Table 2): 3001 ppm
QB (Geotrichum candidum; [6]): 3001 ppm
QB (Staphylococcus aureus; [6]): 3001 ppm

CC(O)C(=O)O (stereo not drawn) [lactic acid]
QB (Alternaria alternata; amount of lactic acid used on its own that suppresses growth, Table 5): 3001 ppm
QB (Pseudomonas aeruginosa; amount of lactic acid used on its own that suppresses growth, Table 4): 3001 ppm

O=C(O)c1ccccc1O [salicylic acid]
QB (Alternaria alternata; amount of salicylic acid used on its own that suppresses growth, Table 7): 500 ppm
QB (Pseudomonas aeruginosa; amount of salicylic acid used on its own that suppresses growth, Table 6): 3001 ppm
